Test results from US20200407398A1, “Short Proline-Rich Lipopeptide Potentiates Minocycline and Rifampicin Against Multidrug-and Extensively Drug-Resistant Pseudomonas Aeruginosa” (priority 2018, published 2020).
Peptide text beside a SMILES is read from it. * marks the point of attachment. Lauroyl = CCCCCCCCCCCC(=O)*

How the values were obtained:
Format in all cases: cell-based
E. faecalis ATCC 29212 = tested on: E. faecalis ATCC 29212
In short: (§1)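 Antibacterial potency was recorded as MIC. Each isolate was grown in Mueller-Hinton broth against twofold compound dilutions (inoculum 5×10^5 CFU/mL, 37° C., 18 h), and the lowest concentration lacking turbidity was taken, with optical density at 590 nm as confirmation.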

[1] = tested on: P. aeruginosa CANWARD-2011 96846 (gentamicin-, tobramycin-resistant)
In short: as §1

[2] = tested on: P. aeruginosa wild-type PAO1
In short: as §1

S. aureus ATCC 29213 = tested on: S. aureus ATCC 29213
In short: as §1

[3] = tested on: methicillin-susceptible Staphylococcus epidermidis CANWARD-2008 81388; details: methicillin-susceptible CANWARD-2008 81388
In short: as §1

pig erythrocytes = tested on: pig erythrocytes
In short: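 Washed pig erythrocytes in PBS were mixed with 2-fold serial dilutions of peptide and incubated for 1 h at 37° C. Released hemoglobin in the supernatant was read at 570 nm, with PBS and 0.1% Triton X-100 as controls. MHC was the minimum concentration giving 5% hemolysis.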

## CCCCCCCCCCCC(=O)N1CCC[C@H]1C(=O)N[C@@H](CCCNC(=N)N)C(=O)N1CCC[C@H]1C(=O)N[C@@H](CCCNC(=N)N)C(=O)N1CCC[C@H]1C(=O)N[C@@H](CCCNC(=N)N)C(=O)N1CCC[C@H]1C(N)=O [Compound C12-PRP, CH3(CH2)10CO-PRPRPRP-NH2] (Lauroyl-PRPRPRP-NH2)
E. faecalis ATCC 29212
  MIC: >128 µg/mL
[1]
  MIC: >128 µg/mL
[2]
  MIC: 128 µg/mL
S. aureus ATCC 29213
  MIC: 128 µg/mL
[3]
  MIC: 32 µg/mL
Pig erythrocytes
  MHC (minimum concentration that resulted in 5% red blood cell hemolysis): > 512 µg/mL
Pig erythrocytes; red cells of porcine, 512 μg/mL
  hemolysis: 4.6±0.2%
